This passage reports Ki results from BindingDB's records for doi:10.7270/Q2TB15BF (Nmmlsc, 2009).

This test deals with Cell division control protein 42 homolog (Homo sapiens, UniProt P60953). Nature of the test: inhibition of fluorescent GTP binding to Cdc42 wt – biochemical, bead-based multiplex flow cytometry, additional SAR set, SAR follow-up (AID 2022).
Cell division control protein 42 homolog, sequence (P60953 whole entry): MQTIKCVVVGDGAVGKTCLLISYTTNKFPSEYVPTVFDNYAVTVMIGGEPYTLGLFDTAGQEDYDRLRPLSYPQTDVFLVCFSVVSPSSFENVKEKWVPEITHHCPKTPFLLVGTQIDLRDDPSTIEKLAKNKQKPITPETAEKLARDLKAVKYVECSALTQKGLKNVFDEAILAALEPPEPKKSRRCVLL

What is called Ki is the dissociation constant of the complex between target and ligand, obtained from inhibition or displacement. `O=C1N=c2c(F)cccc2=C1c1[nH]c2ccccc2c1NO` [7-fluoro-3-[3-(hydroxyamino)-1H-indol-2-yl]-2-indolone] had a Ki of 5.93 µM.

`O=C1Nc2c(Cl)cccc2C1=C1Nc2ccccc2C1=O` came in with a Ki of 0.01 µM.
